Reference: ChEMBL document CHEMBL5038588 (J Med Chem, 2021)

Legend:
[1] = biological target: Voltage-gated inwardly rectifying potassium channel KCNH2 (Homo sapiens, UniProt Q12809); assay: Inhibition of hERG; assay type: toxicity
[2] = system: Salmonella typhimurium; assay: Mutagenecity in Salmonella typhimurium TA97a at 0.5 to 312.5 ug/ml incubated for 42 to 72 hrs in presence of S9 fraction by Ames test; assay type: toxicity, organism-based; conditions: salmonella enterica subsp. enterica serovar typhimurium, dose lower 0.5 µg/ml, time lower 42 hrs, dose upper 312.5 µg/ml, time upper 72 hrs
[3] = system: Salmonella typhimurium; assay: Mutagenecity in Salmonella typhimurium TA98 at 0.5 to 312.5 ug/ml incubated for 42 to 72 hrs in presence of S9 fraction by Ames test; assay type: toxicity, organism-based; conditions: salmonella enterica subsp. enterica serovar typhimurium, dose lower 0.5 µg/ml, time lower 42 hrs, dose upper 312.5 µg/ml, time upper 72 hrs
[4] = system: Salmonella typhimurium; assay: Mutagenecity in Salmonella typhimurium TA102 at 0.5 to 312.5 ug/ml incubated for 42 to 72 hrs in presence of S9 fraction by Ames test; assay type: toxicity, organism-based; conditions: salmonella enterica subsp. enterica serovar typhimurium, dose lower 0.5 µg/ml, time lower 42 hrs, dose upper 312.5 µg/ml, time upper 72 hrs
[5] = system: Salmonella typhimurium; assay: Mutagenecity in Salmonella typhimurium TA100 at 0.5 to 312.5 ug/ml incubated for 42 to 72 hrs in presence of S9 fraction by Ames test; assay type: toxicity, organism-based; conditions: salmonella enterica subsp. enterica serovar typhimurium, dose lower 0.5 µg/ml, time lower 42 hrs, dose upper 312.5 µg/ml, time upper 72 hrs
[6] = Genotoxicity in ICR mouse bone marrow at 25 to 100 mg/kg administered via oral gavage and measured after 24 to 48 hrs by micronucleus assay; assay type: toxicity, organism-based; conditions: in vivo, dose lower 25 mg/kg, time lower 24 hrs, dose upper 100 mg/kg, time upper 48 hrs
[7] = Toxicity in ICR mouse assessed as maximum tolerated dose administered as single oral dose for 14 days; conditions: in vivo, time 14 day
[8] = Tmax in ICR mouse at 15 mg/kg, po measured upto 24 hrs by LC/MS/MS analysis; assay type: ADME, organism-based; conditions: in vivo
[9] = Tmax in ICR mouse at 5 mg/kg, iv measured upto 24 hrs by LC/MS/MS analysis; assay type: ADME, organism-based; conditions: in vivo
[10] = Cmax in ICR mouse at 15 mg/kg, po measured upto 24 hrs by LC/MS/MS analysis; assay type: ADME, organism-based; design: route oral, dose 15 mg/kg, time <=24; conditions: in vivo
[11] = Cmax in ICR mouse at 5 mg/kg, iv measured upto 24 hrs by LC/MS/MS analysis; assay type: ADME, organism-based; design: route intravenous, dose 5 mg/kg, time <=24; conditions: in vivo
[12] = AUC (0 to t) in ICR mouse at 15 mg/kg, po measured upto 24 hrs by LC/MS/MS analysis; assay type: ADME, organism-based; design: route oral, dose 15 mg/kg, time <=24; conditions: in vivo
[13] = AUC (0 to t) in ICR mouse at 5 mg/kg, iv measured upto 24 hrs by LC/MS/MS analysis; assay type: ADME, organism-based; design: route intravenous, dose 5 mg/kg, time <=24; conditions: in vivo
[14] = AUC (0 to infinity) in ICR mouse at 15 mg/kg, po measured upto 24 hrs by LC/MS/MS analysis; assay type: ADME, organism-based; design: route oral, dose 15 mg/kg, time <=24; conditions: in vivo
[15] = AUC (0 to infinity) in ICR mouse at 5 mg/kg, iv measured upto 24 hrs by LC/MS/MS analysis; assay type: ADME, organism-based; design: route intravenous, dose 5 mg/kg, time <=24; conditions: in vivo
[16] = MRT in ICR mouse at 15 mg/kg, po measured upto 24 hrs by LC/MS/MS analysis; assay type: ADME, organism-based; conditions: in vivo
[17] = MRT in ICR mouse at 5 mg/kg, iv measured upto 24 hrs by LC/MS/MS analysis; assay type: ADME, organism-based; conditions: in vivo
[18] = Half life in ICR mouse at 15 mg/kg, po measured upto 24 hrs by LC/MS/MS analysis; assay type: ADME, organism-based; conditions: in vivo
[19] = Half life in ICR mouse at 5 mg/kg, iv measured upto 24 hrs by LC/MS/MS analysis; assay type: ADME, organism-based; conditions: in vivo
[20] = Clearance in ICR mouse at 5 mg/kg, iv measured upto 24 hrs by LC/MS/MS analysis; assay type: ADME, organism-based; conditions: in vivo
[21] = Volume of distribution at steady state in ICR mouse at 5 mg/kg, iv measured upto 24 hrs by LC/MS/MS analysis; assay type: ADME, organism-based; conditions: in vivo, read-out: Vdss
[22] = Oral bioavailability in ICR mouse at 15 mg/kg measured upto 24 hrs by LC/MS/MS analysis; assay type: ADME, organism-based; conditions: in vivo
[23] = biological target: Proto-oncogene tyrosine-protein kinase Src (Homo sapiens, UniProt P12931); assay: Inhibition of human c-SRC using poly [Glu:Tyr] as substrate incubated for 30 mins followed by 33P-ATP addition and measured after 2 hrs by liquid scintillation counter method
Chain of Proto-oncogene tyrosine-protein kinase Src (P12931 2-536 limits assumed): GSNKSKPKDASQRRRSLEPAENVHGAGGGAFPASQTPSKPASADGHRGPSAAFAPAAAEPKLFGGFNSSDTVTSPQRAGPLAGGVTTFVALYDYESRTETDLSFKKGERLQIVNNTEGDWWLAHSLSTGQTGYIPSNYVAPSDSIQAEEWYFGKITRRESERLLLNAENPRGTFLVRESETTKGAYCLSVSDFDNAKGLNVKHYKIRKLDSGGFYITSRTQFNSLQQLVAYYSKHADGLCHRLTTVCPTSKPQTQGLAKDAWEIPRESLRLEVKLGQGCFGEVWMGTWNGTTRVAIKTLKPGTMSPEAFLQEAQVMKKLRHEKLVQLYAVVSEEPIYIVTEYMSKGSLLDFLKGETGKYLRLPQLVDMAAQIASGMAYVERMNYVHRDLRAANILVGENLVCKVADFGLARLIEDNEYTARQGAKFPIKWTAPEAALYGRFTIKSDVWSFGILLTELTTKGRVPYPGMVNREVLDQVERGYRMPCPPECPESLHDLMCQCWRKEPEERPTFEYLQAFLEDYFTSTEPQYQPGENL

[24] = biological target: T1, Receptor-type tyrosine-protein kinase FLT3 (Homo sapiens, UniProt P36888); assay: Inhibition of human FLT3 using EAIYAAPFAKKK as substrate incubated for 30 mins followed by 33P-ATP addition and measured after 2 hrs by liquid scintillation counter method
T1 sequence (P36888 whole entry): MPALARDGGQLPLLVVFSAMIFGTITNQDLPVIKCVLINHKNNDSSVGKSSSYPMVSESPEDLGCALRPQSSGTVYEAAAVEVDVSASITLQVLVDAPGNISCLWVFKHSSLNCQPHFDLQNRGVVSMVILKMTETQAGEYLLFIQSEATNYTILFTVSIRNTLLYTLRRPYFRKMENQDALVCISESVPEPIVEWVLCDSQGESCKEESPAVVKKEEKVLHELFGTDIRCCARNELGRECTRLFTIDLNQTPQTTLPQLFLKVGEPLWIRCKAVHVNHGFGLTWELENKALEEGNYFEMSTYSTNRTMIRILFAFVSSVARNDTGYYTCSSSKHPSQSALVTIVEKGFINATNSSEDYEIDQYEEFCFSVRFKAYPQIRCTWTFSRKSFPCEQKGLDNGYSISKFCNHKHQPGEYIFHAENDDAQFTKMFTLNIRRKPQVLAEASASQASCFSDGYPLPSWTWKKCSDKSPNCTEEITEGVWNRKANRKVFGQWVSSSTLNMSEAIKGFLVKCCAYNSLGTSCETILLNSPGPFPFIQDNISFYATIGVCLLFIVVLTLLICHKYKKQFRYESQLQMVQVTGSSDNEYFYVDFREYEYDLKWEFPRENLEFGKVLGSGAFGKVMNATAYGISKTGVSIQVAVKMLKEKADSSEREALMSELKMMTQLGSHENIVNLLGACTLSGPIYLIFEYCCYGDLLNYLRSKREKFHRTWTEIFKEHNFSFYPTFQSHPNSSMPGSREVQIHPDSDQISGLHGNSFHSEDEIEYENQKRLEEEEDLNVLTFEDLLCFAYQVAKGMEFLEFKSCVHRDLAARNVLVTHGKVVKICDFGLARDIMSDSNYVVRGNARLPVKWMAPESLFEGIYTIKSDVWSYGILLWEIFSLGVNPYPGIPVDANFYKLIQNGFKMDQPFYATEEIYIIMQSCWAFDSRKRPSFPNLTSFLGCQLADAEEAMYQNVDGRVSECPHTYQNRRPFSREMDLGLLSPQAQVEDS

[25] = biological target: Vascular endothelial growth factor receptor 2 (Homo sapiens, UniProt P35968); assay: Inhibition of human KDR/VEGFR2 using poly [Glu:Tyr] as substrate incubated for 30 mins followed by 33P-ATP addition and measured after 2 hrs by liquid scintillation counter method
Chain of Vascular endothelial growth factor receptor 2 (P35968 whole entry): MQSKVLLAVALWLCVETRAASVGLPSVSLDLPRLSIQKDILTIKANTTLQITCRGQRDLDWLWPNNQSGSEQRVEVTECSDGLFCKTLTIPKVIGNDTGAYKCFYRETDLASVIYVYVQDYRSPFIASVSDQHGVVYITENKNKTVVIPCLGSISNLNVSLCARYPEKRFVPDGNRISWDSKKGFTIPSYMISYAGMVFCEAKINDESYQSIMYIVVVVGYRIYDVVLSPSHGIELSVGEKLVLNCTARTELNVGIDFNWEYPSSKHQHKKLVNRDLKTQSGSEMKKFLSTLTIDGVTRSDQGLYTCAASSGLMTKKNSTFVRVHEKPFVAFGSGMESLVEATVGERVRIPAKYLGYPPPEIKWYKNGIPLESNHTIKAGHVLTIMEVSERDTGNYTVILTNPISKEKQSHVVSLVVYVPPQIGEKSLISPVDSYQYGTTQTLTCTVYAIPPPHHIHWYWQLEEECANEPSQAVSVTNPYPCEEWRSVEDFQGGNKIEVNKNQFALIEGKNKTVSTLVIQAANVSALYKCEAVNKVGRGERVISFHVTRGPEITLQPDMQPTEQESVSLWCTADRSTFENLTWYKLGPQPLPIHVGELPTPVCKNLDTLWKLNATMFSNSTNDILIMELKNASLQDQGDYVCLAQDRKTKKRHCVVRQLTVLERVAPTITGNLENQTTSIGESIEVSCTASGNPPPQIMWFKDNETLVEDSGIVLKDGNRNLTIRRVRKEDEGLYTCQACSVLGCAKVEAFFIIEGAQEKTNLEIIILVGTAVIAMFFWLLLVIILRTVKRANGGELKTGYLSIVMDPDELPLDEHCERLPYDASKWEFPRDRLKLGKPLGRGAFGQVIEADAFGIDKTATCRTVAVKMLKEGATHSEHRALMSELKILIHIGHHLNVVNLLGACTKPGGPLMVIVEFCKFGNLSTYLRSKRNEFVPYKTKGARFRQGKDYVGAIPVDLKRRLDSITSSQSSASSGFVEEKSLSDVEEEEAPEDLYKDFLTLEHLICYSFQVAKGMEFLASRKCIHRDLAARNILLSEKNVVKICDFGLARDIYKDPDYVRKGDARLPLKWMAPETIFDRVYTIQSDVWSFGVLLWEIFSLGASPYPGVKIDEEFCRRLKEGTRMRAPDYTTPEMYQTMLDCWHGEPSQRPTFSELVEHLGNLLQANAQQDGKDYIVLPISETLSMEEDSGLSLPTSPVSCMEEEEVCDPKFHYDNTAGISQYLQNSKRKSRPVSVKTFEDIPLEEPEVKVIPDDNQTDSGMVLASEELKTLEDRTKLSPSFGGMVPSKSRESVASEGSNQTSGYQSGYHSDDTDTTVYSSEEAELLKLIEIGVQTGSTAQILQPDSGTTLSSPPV

[26] = biological target: Tyrosine-protein kinase Lyn (Homo sapiens, UniProt P07948); assay: Inhibition of human LYN using poly [Glu:Tyr] as substrate incubated for 30 mins followed by 33P-ATP addition and measured after 2 hrs by liquid scintillation counter method
Chain of Tyrosine-protein kinase Lyn (P07948 whole entry): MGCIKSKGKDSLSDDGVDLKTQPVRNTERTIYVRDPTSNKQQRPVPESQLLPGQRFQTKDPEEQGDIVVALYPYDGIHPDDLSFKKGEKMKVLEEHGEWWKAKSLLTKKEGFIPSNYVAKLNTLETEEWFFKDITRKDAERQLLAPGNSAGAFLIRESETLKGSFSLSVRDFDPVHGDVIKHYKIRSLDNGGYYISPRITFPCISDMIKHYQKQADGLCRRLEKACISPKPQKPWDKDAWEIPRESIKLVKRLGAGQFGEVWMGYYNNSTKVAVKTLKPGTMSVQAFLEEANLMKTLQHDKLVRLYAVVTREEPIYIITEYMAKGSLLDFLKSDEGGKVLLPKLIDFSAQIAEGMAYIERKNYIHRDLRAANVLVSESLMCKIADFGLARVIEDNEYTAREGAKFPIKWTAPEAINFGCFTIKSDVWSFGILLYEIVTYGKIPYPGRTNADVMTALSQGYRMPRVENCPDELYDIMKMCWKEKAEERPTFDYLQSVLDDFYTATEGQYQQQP

[27] = biological target: Platelet-derived growth factor receptor alpha (Homo sapiens, UniProt P16234); assay: Inhibition of human PDGFRa using poly [Glu:Tyr] as substrate incubated for 30 mins followed by 33P-ATP addition and measured after 2 hrs by liquid scintillation counter method
Chain of Platelet-derived growth factor receptor alpha (P16234 whole entry): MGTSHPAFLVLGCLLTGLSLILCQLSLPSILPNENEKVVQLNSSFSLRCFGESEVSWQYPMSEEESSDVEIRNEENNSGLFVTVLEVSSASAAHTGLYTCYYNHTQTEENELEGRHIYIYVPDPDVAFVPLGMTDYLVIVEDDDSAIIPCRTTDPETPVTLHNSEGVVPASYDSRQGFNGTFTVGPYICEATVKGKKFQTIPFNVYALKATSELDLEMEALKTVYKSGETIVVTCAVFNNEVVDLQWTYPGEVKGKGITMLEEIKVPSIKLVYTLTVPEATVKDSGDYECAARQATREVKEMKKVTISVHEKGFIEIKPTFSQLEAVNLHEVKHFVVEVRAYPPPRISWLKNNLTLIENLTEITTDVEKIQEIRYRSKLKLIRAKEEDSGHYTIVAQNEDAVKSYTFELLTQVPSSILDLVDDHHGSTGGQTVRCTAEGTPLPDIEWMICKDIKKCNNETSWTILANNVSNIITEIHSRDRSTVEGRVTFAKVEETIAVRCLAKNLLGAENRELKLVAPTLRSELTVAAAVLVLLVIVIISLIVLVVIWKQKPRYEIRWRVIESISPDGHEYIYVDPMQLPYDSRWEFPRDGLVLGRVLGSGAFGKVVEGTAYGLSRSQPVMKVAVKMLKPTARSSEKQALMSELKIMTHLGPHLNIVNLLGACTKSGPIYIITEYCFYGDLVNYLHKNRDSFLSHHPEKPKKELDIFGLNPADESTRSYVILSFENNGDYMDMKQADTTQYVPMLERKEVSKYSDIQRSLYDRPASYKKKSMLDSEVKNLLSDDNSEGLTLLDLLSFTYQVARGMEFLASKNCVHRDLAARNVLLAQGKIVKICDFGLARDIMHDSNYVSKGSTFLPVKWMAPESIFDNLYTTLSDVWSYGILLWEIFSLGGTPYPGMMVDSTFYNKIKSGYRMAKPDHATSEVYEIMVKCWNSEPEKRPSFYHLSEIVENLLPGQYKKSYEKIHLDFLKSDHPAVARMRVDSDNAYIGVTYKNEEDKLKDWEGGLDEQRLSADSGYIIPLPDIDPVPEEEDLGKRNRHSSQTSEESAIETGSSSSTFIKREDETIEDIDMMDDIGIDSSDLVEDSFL

[28] = system: Salmonella typhimurium; assay: Mutagenecity in Salmonella typhimurium TA1535 at 0.5 to 312.5 ug/ml incubated for 42 to 72 hrs in presence of S9 fraction by Ames test; assay type: toxicity, organism-based; conditions: salmonella enterica subsp. enterica serovar typhimurium, dose lower 0.5 µg/ml, time lower 42 hrs, dose upper 312.5 µg/ml, time upper 72 hrs
[29] = system: BaF3; assay: Inhibition of cell proliferation in mouse BaF3 cells expressing BCR-ABL T315I mutant assessed as cell viability at 100 uM measured after 48 hrs by trypan blue based assay (RVB=100%); assay type: functional; conditions: read-out: Activity
[30] = system: KU812 cell line; assay: Cytotoxicity against human KU812 cells assessed as inhibition of cell growth measured after 72 hrs by MTT assay; assay type: functional, cell-based; conditions: KU812, 72 h
[31] = system: U-937; assay: Cytotoxicity against human U-937 cells assessed as inhibition of cell growth measured after 72 hrs by MTT assay; assay type: functional, cell-based; conditions: U-937, 72 h
[32] = system: Jurkat; assay: Cytotoxicity against human Jurkat cells assessed as inhibition of cell growth measured after 72 hrs by MTT assay; assay type: functional, cell-based
[33] = system: BaF3; assay: cells; conditions: Mus musculus, BaF3, 72 h
[34] = system: BaF3; assay: cells; conditions: Mus musculus, BaF3, 48 h
[35] = system: K562; assay: cells; conditions: Homo sapiens, K562, 72 h
[36] = system: K562; conditions: Homo sapiens
[37] = system: BaF3; assay: animal or person; conditions: Mus musculus, BaF3, po, 360 h, read-out: TGI

Chain of Voltage-gated inwardly rectifying potassium channel KCNH2 (Q12809 whole entry): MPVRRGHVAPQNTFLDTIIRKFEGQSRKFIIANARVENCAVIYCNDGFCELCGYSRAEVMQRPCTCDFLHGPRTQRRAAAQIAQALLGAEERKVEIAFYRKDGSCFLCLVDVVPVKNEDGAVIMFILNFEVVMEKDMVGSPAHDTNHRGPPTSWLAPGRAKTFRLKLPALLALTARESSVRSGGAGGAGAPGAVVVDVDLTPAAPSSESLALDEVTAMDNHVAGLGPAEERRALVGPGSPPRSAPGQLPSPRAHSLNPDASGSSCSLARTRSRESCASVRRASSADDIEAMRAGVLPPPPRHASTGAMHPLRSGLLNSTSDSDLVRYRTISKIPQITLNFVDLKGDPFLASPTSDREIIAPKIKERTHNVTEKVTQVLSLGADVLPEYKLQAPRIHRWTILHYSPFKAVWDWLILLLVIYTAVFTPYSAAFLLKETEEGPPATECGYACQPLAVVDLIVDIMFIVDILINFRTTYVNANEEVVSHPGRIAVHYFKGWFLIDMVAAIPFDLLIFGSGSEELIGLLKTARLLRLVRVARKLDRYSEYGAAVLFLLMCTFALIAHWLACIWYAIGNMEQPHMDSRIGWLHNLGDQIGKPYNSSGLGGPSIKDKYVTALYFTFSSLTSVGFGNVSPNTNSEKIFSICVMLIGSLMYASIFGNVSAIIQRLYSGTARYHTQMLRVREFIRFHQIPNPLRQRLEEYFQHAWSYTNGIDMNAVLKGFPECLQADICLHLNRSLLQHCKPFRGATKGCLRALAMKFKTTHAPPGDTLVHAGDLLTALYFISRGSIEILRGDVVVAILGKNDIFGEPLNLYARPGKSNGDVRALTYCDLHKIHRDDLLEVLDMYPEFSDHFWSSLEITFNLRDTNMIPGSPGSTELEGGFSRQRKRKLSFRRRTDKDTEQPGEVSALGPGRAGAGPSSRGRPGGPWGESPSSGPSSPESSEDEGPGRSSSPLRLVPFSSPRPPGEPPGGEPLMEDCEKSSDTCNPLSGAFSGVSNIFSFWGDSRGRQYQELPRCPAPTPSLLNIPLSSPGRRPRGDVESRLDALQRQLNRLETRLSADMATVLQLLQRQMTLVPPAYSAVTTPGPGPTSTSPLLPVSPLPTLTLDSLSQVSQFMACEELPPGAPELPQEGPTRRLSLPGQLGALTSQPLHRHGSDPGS

SMILES | IC50 [33] | Tmax [8] | Tmax [9] | Cmax [10] | Cmax [11] | AUC(0-t) at 24 h [12] | AUC(0-t) at 24 h [13] | AUC(0-inf) [14] | AUC(0-inf) [15] | MRT [16] | MRT [17] | half-life [18] | half-life [19] | clearance [20] | Vd [21] | bioavailability [22] | viability at 100 µM [29] | IC50 [30] | IC50 [31] | IC50 [32] | further results
Cc1ccc(C(=O)Nc2ccc3c(c2)C(F)(F)C[C@@H]3N2CCN(C)CC2)cc1C#Cc1cnc2cccnn12 | – | 5 h | 4.8 min | 129 ng/mL | 1470 ng/mL | 1390 ng·h/mL | 1390 ng·h/mL | 1440 ng·h/mL | 1500 ng·h/mL | 8.22 h | 5.11 h | 4.61 h | 5.3 h | 62 mL/min/kg | 18.1 L/kg | 32% | – | – | – | – | IC50 [1]: 11100 nM; Activity [2]: Non-Toxic; Activity [3]: Non-Toxic; Activity [4]: Non-Toxic; Activity [5]: Non-Toxic; Activity [6]: Non-Toxic; MTD at 336 h [7]: 100 mg/kg; IC50 [23]: < 10 nM; IC50 [24]: < 10 nM; IC50 [25]: < 10 nM; IC50 [26]: < 10 nM; IC50 [27]: < 10 nM; Activity [28]: Non-Toxic
CN1CCN(Cc2ccc(NC(=O)N3CCC(C#Cc4cnc5cccnn45)C3)cc2C(F)(F)F)CC1 (centres undefined) | – | – | – | – | – | – | – | – | – | – | – | – | – | – | – | – | 91.9% | – | – | – | –
Cc1ccc(-c2nc3ccc(CN4CCN(C)CC4)cc3[nH]2)cc1C#Cc1cnc2cccnn12 | – | – | – | – | – | – | – | – | – | – | – | – | – | – | – | – | 84.5% | – | – | – | –

Further lines, with some results ahead:

IC50 [33] | SMILES | Tmax [8] | Tmax [9] | Cmax [10] | Cmax [11] | AUC(0-t) at 24 h [12] | AUC(0-t) at 24 h [13] | AUC(0-inf) [14] | AUC(0-inf) [15] | MRT [16] | MRT [17] | half-life [18] | half-life [19] | clearance [20] | Vd [21] | bioavailability [22] | viability at 100 µM [29] | IC50 [30] | IC50 [31] | IC50 [32] | further results
> 100 nM | Cc1ccc(NC(=O)c2ccc(CN3CCN(C)CC3)cc2)cc1Nc1nccc(-c2cccnc2)n1 [IMATINIB] | – | – | – | – | – | – | – | – | – | – | – | – | – | – | – | – | 51.3 nM | > 1000 nM | > 1000 nM | IC50 [34]: > 100 nM; IC50 [35]: 82.9 nM
11.8 nM | Cc1cn(-c2cc(NC(=O)c3ccc(C)c(Nc4nccc(-c5cccnc5)n4)c3)cc(C(F)(F)F)c2)cn1 [NILOTINIB] | – | – | – | – | – | – | – | – | – | – | – | – | – | – | – | – | 1.8 nM | > 1000 nM | > 1000 nM | IC50 [34]: > 100 nM; IC50 [35]: 1.8 nM
0.9 nM | Cc1ccc(C(=O)Nc2ccc(CN3CCN(C)CC3)c(C(F)(F)F)c2)cc1C#Cc1cnc2cccnn12 [PONATINIB] | 1.5 h | 4.8 min | 70 ng/mL | 270 ng/mL | 363 ng·h/mL | 497 ng·h/mL | 432 ng·h/mL | 528 ng·h/mL | 5.25 h | 4.29 h | 2.84 h | 3.28 h | 161 mL/min/kg | 41 L/kg | 27% | 2.8% | 0.1 nM | 246 nM | 295 nM | IC50 [36]: 10 nM; inhibition in vivo at 5 mg/kg [37]: 53%
